The source of these data is patent US5654139A (The United States of America as represented by the …, priority 1994, dated 1997).

One experiment deals with T1, human 5-HT2Ccys receptor (Homo sapiens, UniProt P28335).
T1 construct: consisting of the entire coding region of the 5-HT2C receptor; expressed in transfected cells; host or cells: Xenopus laevis oocytes injected with cRNA
T1 sequence (P28335 33-458): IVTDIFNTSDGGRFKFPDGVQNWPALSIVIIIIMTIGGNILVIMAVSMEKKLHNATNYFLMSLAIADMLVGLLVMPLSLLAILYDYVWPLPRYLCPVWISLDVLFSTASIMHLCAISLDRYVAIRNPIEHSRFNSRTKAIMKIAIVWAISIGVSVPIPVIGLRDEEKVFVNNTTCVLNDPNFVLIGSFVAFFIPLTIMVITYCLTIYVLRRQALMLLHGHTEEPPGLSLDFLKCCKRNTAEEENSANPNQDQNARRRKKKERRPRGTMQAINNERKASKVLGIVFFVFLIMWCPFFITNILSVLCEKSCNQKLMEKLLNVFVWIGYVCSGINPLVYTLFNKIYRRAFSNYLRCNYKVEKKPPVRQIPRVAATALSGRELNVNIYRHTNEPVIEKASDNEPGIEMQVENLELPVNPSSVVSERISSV
The experiment is described as follows: Two-electrode voltage-clamp recording of 5-HT-activated currents in Xenopus oocytes expressing 5-HT2Ccys. In kind it is cell-based. (In two-electrode clamp one electrode senses voltage and the other passes current.)

In another experiment the target is T2, human 5-HT2Cser receptor (Homo sapiens, UniProt P28335).
T2 construct: consisting of the entire coding region of the 5-HT2C receptor; expressed in transfected cells; host or cells: Xenopus laevis oocytes injected with cRNA
T2 sequence (P28335 33-458): T1 sequence (P28335 33-458)
The experiment is described as follows: Two-electrode voltage-clamp recording of 5-HT-activated currents in Xenopus oocytes expressing 5-HT2Cser. In kind it is cell-based.

The mark [1] stands for this setting: 1 μM PPRZ, voltage-clamp at -70 mV.

As for `Cl.c1ccc2c(N3CCNCC3)cccc2c1` [PPRZ, 1-(1-naphthyl) piperazine HCL], the “effect on currents activated by 10 nM 5-HT” value on human 5-HT2Ccys receptor (setting [1]) and at human 5-HT2Cser receptor (setting [1]) was “suppressed” each time. Besides, the “reversibility of the effect of PPRZ on 5-HT-activated response” value at human 5-HT2Ccys receptor (after a 20 min wash) and on human 5-HT2Cser receptor (after a 20 min wash) was “reversible” each time.
